Measurements reported in patent US10208033B2, “β-carboline, dihydro-β-carboline and tetrahydro-β-carboline alkaloid derivatives and preparation methods same and use in aspects of preventing and treating plant viruses, fungicides and insecticides” (NANKAI UNIVERSITY, priority 2013, dated 2019).
Where a name gives a salt, the structure may show the parent alone. Read-outs that look alike come from different tables or passages of the source.

Legend:
[1] = tested on: tobacco mosaic virus (TMV); experiment: Anti-TMV in vitro effect (half-leaf soaking); type: cell-based, tobacco mosaic virus (host Nicotiana tabacum L.cv.Xanthi NN)
[2] = tested on: tobacco mosaic virus (TMV); experiment: Anti-TMV in vivo inactivation; parameters: species or system tobacco mosaic virus (host Nicotiana tabacum L.cv.Xanthi NN)
[3] = tested on: tobacco mosaic virus (TMV); experiment: Anti-TMV in vivo therapeutic effect; parameters: species or system tobacco mosaic virus (host Nicotiana tabacum L.cv.Xanthi NN)
[4] = tested on: tobacco mosaic virus (TMV); experiment: Anti-TMV in vivo protective effect; parameters: species or system tobacco mosaic virus (host Nicotiana tabacum L.cv.Xanthi NN)
cucumber fusarium wilt = experiment: Fungicidal (bactericidal) activity in vitro, PDA colony diameter; type: cell-based; conditions: 50 mg/kg
Cercospora arachidicola = experiment: as above; type: cell-based; conditions: 50 mg/kg
Macrophoma kawatsukai = experiment: as above; type: cell-based; conditions: 50 mg/kg
Alternaria solani = experiment: as above; type: cell-based; conditions: 50 mg/kg
Fusarium graminearumt = experiment: microbe, parasite or virus in culture; type: cell-based; conditions: 50 mg/kg
potato late blight = experiment: microbe, parasite or virus in culture; type: cell-based
Sclerotinia scleotiorum = experiment: Fungicidal (bactericidal) activity in vitro, PDA colony diameter; type: cell-based; conditions: 50 mg/kg
Botrytis cinerea = experiment: as above; type: cell-based; conditions: 50 mg/kg
Rhizoctonia solani = experiment: as above; type: cell-based; conditions: 50 mg/kg
Phytophthora capsici = experiment: as above; type: cell-based; conditions: 50 mg/kg
Fusarium fujikuroi = experiment: as above; type: cell-based; conditions: 50 mg/kg
Rhizoctonia cereali = experiment: as above; type: cell-based; conditions: 50 mg/kg
Bipolaria maydis = experiment: organism not typed; type: cell-based; conditions: 50 mg/kg
[5] = tested on: Colletotrichum orbiculare; experiment: Fungicidal (bactericidal) activity in vitro, PDA colony diameter; type: cell-based; conditions: 50 mg/kg
armyworms = type: in vivo; conditions: concentration 600 mg/kg
cotton bollworms = experiment: whole plant or invertebrate; conditions: concentration 600 mg/kg
Protocol: Experimental method of cotton bollworms: feed and drug mixing method: measure 3 mL of prepared solution and add it to about 27 g of newly prepared feed, thereby obtaining needed concentration through dilution by 10 times.

mosquito larvae = experiment: whole plant or invertebrate; conditions: 24 h
Protocol: Experimental method of mosquito larvae: culex pipiens pallens, a normal colony raised indoors. Weigh about 5 mg of the compound for test, put it in a penicillin vial, add 5 mL of acetone (or an appropriate solvent), and shake and dissolve it to obtain a 1000 ppm mother solution. Pipette 0.5 mL of the mother solution, add it to a 100 mL beaker filled with 89.9 mL of water, select 10 mosquito larvae at the beginning of the fourth instar, and pour them to a beaker together with 10 mL of feeding solution. The concentration of the drug solution is 5 ppm. […] Use an aqueous solution containing 0.5 mL of test solvent as a blank.

corn borers = conditions: concentration 600 mg/kg

SMILES | Relative inhibition rate (%) In vitro activity ([1]; treatment dose 100 μg/mL) | Relative inhibition rate (%) In vitro activity ([1]; treatment dose 500 μg/mL) | Relative inhibition rate (%) In vivo inactivation ([2]; treatment dose 100 μg/mL) | Relative inhibition rate (%) In vivo inactivation ([2]; treatment dose 500 μg/mL) | Relative inhibition rate (%) In vivo therapy ([3]; treatment dose 100 μg/mL) | Relative inhibition rate (%) In vivo therapy ([3]; treatment dose 500 μg/mL) | Relative inhibition rate (%) In vivo protection ([4]; treatment dose 100 μg/mL) | Relative inhibition rate (%) In vivo protection ([4]; treatment dose 500 μg/mL) | Bactericidal activity (%) Cucumber fusarium wilt (cucumber fusarium wilt) | Bactericidal activity (%) Cercospora arachidicola (Cercospora arachidicola) | Bactericidal activity (%) Macrophoma kawatsukai (Macrophoma kawatsukai) | Bactericidal activity (%) Alternaria solani (Alternaria solani) | Bactericidal activity (%) Fusarium graminearumt (Fusarium graminearumt) | Bactericidal activity (%) Sclerotinia scleotiorum (Sclerotinia scleotiorum) | Bactericidal activity (%) Botrytis cinerea (Botrytis cinerea) | Bactericidal activity (%) Rhizoctonia solani (Rhizoctonia solani) | Bactericidal activity (%) Phytophthora capsici (Phytophthora capsici) | Bactericidal activity (%) Fusarium fujikuroi (Fusarium fujikuroi) | Bactericidal activity (%) Rhizoctonia cereali (Rhizoctonia cereali) | Bactericidal activity (%) Bipolaria maydis (Bipolaria maydis) | also measured
CCCCOC(=O)[C@@H]1Cc2c([nH]c3ccccc23)[C@H](C)N1 [Ib-8, (1S, 3S)-1-methyl-2,3,4,9-tetrahydropyridino [3,4-b] indol-3-butyl formate] | 13.4% | 48.2% | 20.3% | 51.3% | 17.1% | 42.2% | 17.6% | 43.2% | 33.3% | 71.4% | 64.7% | 83.3% | 50.0% | 72.0% | 50.0% | 55.4% | 51.5% | 50.0% | 84.4% | 89.5% | Bactericidal activity (%) potato late blight (potato late blight): 35.0%; Bactericidal activity (%) Colletotrichum orbiculare [5]: 38.1%; Armyworm Mortality (%) (armyworms): 5%; Cotton bollworm Mortality (%) (cotton bollworms): 20%; Mosquito larvae Mortality (%) (mosquito larvae; concentration 10 mg/kg): 10%; Corn borer Mortality (%) (corn borers): 0%
CCOC(=O)C1Cc2c([nH]c3ccccc23)CN1 (centres unmarked) [Ib-9, 2,3,4,9-tetrahydropyridino [3,4-b] indol-3-ethyl formate] | 12.8% | 44.5% | 16.9% | 41% | 14.3% | 42.7% | 17.2% | 40.4% | 19.2% | 84.6% | 21.4% | 26.3% | 35.7% | 19.6% | 12.1% | 35.5% | 15.6% | 14.3% | 44.7% | 22.7% | Bactericidal activity (%) potato late blight (potato late blight): 22.7%; Bactericidal activity (%) Colletotrichum orbiculare [5]: 42.9%; Armyworm Mortality (%) (armyworms): 15%; Cotton bollworm Mortality (%) (cotton bollworms): 10%; Mosquito larvae Mortality (%) (mosquito larvae; concentration 10 mg/kg): 35%; Corn borer Mortality (%) (corn borers): 10%
CCOC(=O)[C@@H]1Cc2c([nH]c3ccccc23)[C@H](CC)N1 [Ib-10, (1S, 3S)-1-ethyl-2,3,4,9-tetrahydropyridino [3,4-b] indol-3-ethyl formate] | 0% | 34.1% | 12.6% | 46.4% | 11.4% | 38.1% | 10.7% | 36.6% | 23.8% | 21.4% | 64.7% | 55.6% | 35.7% | 56.0% | 40.9% | 21.4% | 45.5% | 35.7% | 65.6% | 31.6% | Bactericidal activity (%) potato late blight (potato late blight): 30.0%; Bactericidal activity (%) Colletotrichum orbiculare [5]: 42.9%; Armyworm Mortality (%) (armyworms): 30%; Cotton bollworm Mortality (%) (cotton bollworms): 15%; Mosquito larvae Mortality (%) (mosquito larvae; concentration 10 mg/kg): 60%; Corn borer Mortality (%) (corn borers): 25%
CCOC(=O)[C@H]1Cc2c([nH]c3ccccc23)[C@@H](C)N1 [Ib-12, (1R,3R)-1-methyl-2,3,4,9-tetrahydropyridino [3,4-b] indol-3-ethyl formate] | 12.6% | 40% | 16.7% | 35.8% | 12.9% | 38.6% | 17% | 41.9% | 19.2% | 92.3% | 54.8% | 26.3% | 26.2% | 17.7% | 24.2% | 42.1% | 9.4% | 28.6% | 39.5% | 18.2% | Bactericidal activity (%) potato late blight (potato late blight): 18.2%; Bactericidal activity (%) Colletotrichum orbiculare [5]: 25.0%; Armyworm Mortality (%) (armyworms): 50%; Cotton bollworm Mortality (%) (cotton bollworms): 30%; Mosquito larvae Mortality (%) (mosquito larvae; concentration 5 mg/kg): 40%; Mosquito larvae Mortality (%) (mosquito larvae; concentration 10 mg/kg): 100%; Corn borer Mortality (%) (corn borers): 50%
CCOC(=O)C1Cc2c([nH]c3ccccc23)C(C)=N1 (centres unmarked) [Ib-14, 1-methyl-4,9-dihydro-pyridino [3,4-b] indol-3-ethyl formate] | 11.1% | 42.6% | 0% | 35.7% | 15.9% | 45.8% | 21.4% | 47% | 23.1% | 69.2% | 33.3% | 42.1% | 42.9% | 29.4% | 36.4% | 59.2% | 15.6% | 28.6% | 65.8% | 36.4% | Bactericidal activity (%) potato late blight (potato late blight; 50 mg/kg): 36.4%; Bactericidal activity (%) Colletotrichum orbiculare [5]: 42.9%; Armyworm Mortality (%) (armyworms): 10%; Cotton bollworm Mortality (%) (cotton bollworms): 30%; Mosquito larvae Mortality (%) (mosquito larvae; concentration 10 mg/kg): 30%; Corn borer Mortality (%) (corn borers): 10%
